Read-outs that look alike come from different tables or passages of the source.
Tests used:
rats = assay: Reversal of the effect of the mGluR2 PAM JNJ-42153605-induced inhibition of scopolamine-induced hyperlocomotion; format: in vivo, rat
Method: 2) Reversal of the Effect of the mGluR2 PAM JNJ-42153605-Induced Inhibition of Scopolamine-Induced Hyperlocomotion
Motor activity was measured in microprocessor-based motor activity arenas (closed gray PVC cylinders with a height of 39 cm and a diameter of 31 cm). Each arena was placed on an infrared LED (8×8 LEDs) lit box (white PVC squared box; 40×40 cm^2; height 12.5 cm. An infrared-sensitive tube camera and a white light source were mounted to the ceiling above the observation chamber to track the animal. The total distance traveled (cm) was recorded and analyzed using the Noldus Ethovision XT Video Tracking System (Version 7.0.418; Noldus, Wageningen, The Netherlands). The intensity of the light within the activity cages (measured in the centre at the level of the floor) ranged between 4 and 8 LUX.
The rats were pretreated with test compound or vehicle at 60 min before the start of the activity recordings and placed into individual cages. The rats were challenged with JNJ-42153605 (3-(cyclopropylmethyl)-7-(4-phenylpiperidin-1-yl)-8-(trifluoromethyl)[1,2,4]triazolo[4,3-a]pyridine; WO2010/130424; Cid et al. J. Med. Chem. 2012, 55, 8770-8789) (20 mg/kg, i.v.) 30 min before the start of the activity recording combined with scopolamine (0.16 mg/kg, i.v.) just before the start of the activity measurements. Immediately after the injection of scopolamine, the rats were placed into the activity monitors and total distance traveled over the first 30 min was measured.
For reversal of the inhibitory effect of JNJ-42153605 on the scopolamine-induced hyperlocomotion, the following all-or-none criteria were adopted: (1) reversal: total distance >1500 cm.

human mGlu2 receptor = human mGlu2 receptor (Homo sapiens, UniProt Q14416); assay: [35S]GTPγS binding assay, mGluR2 negative allosteric modulation (membranes from CHO cells transfected with human mGlu2 receptor, glutamate ~EC80 60 μM); details: for GTPγS - hmGluR2 anGT pIC50: membranes with human mGlu2 receptor; for GTPγS - hmGluR2 anGT pIC50 / IC50: glutamate ~EC80 (60 μM), pIC50 = -log IC50 (M); for GTPγS - hmGluR2 anGT Emax: relative maximal effect: maximal % inhibition relative to the control glutamate response; for IC50: GTPγS - hmGluR2 anGT pIC50, membranes with human mGlu2 receptor;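 as to all read-outs here: membranes preincubated 30 min at 30 °C with compound plus glutamate, then [35S]GTPγS (0.1 nM) incorporation measured over another 30 min at 30 °C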
Method: The [^35S]GTPγS binding assay is a functional membrane-based assay used to study G-protein coupled receptor (GPCR) function whereby incorporation of a non-hydrolysable form of GTP, [^35S]GTPγS (guanosine 5′-triphosphate, labelled with gamma-emitting ^35S), is measured. […] Here we describe the use of the [^35S]GTPγS binding assay using membranes from cells transfected with the human mGlu2 receptor and adapted from Schaffhauser et al. (Molecular Pharmacology, 2003, 4:798-810) for the detection of the negative allosteric modulation (NAM) properties of the compounds of this invention.
CHO-cells were cultured to pre-confluence and stimulated with 5 mM butyrate for 24 h. Cells were then collected by scraping in PBS and cell suspension was centrifuged (10 min at 4000 RPM in benchtop centrifuge). Supernatant was discarded and pellet gently resuspended in 50 mM Tris-HCl, pH 7.4 by mixing with an Ultra Turrax homogenizer. The suspension was centrifuged at 12,400 RPM (Sorvall F14S-6x250Y) for 10 minutes and the supernatant discarded. The pellet was homogenized in 5 mM Tris-HCl, pH 7.4 using an Ultra Turrax homogenizer and centrifuged again (13,000 RPM, 20 min, 4° C.). The final pellet was resuspended in 50 mM Tris-HCl, pH 7.4 and stored at −80° C. in appropriate aliquots before use. Protein concentration was determined by the Bradford method (Bio-Rad, USA) with bovine serum albumin as standard.
Measurement of mGluR2 negative allosteric modulatory activity of test compounds was performed as follows. Test compounds and glutamate were diluted in assay buffer containing 10 mM HEPES acid, 10 mM HEPES salt, pH 7.4, 100 mM NaCl, 3 mM MgCl2 and 10 μM GDP. Human mGlu2 receptor-containing membranes were thawed on ice and diluted in assay buffer supplemented with 18 μg/ml saponin. Membranes were pre-incubated with compound together with a predefined (˜EC80) concentration of glutamate (60 μM) for 30 min at 30° C. After addition of [^35S]GTPγS (f.c. 0.1 nM), assay mixtures were shaken briefly and further incubated to allow [^35S]GTPγS incorporation on activation (30 minutes, 30° C.). Final assay mixtures contained 7 μg of membrane protein in 10 mM HEPES acid, 10 mM HEPES salt, pH 7.4, 100 mM NaCl, 3 mM MgCl2, 10 μM GDP and 10 μg/ml saponin. Total reaction volume was 200 μl. Reactions were terminated by rapid filtration through Unifilter-96 GF/B plates (Perkin Elmer, Massachusetts, USA) using a 96-well filtermate universal harvester. Filters were washed 6 times with ice-cold 10 mM NaH2PO4/10 mM Na2HPO4, pH 7.4. Filters were then air-dried, and 30 μl of liquid scintillation cocktail (Microscint-O) was added to each well. Membrane-bound radioactivity was counted in a Topcount.
Data were calculated as % of the control glutamate response, defined as the response that is generated upon addition of an EC80-equivalent concentration of glutamate.

[1] = rats, route PO, criterion total distance >1500 cm
[2] = historical solvent-pretreated control rats, first 30 min, JNJ-42153605 20 mg/kg i.v., scopolamine 0.16 mg/kg i.v.
[3] = read-out: GTPγS - hmGluR2 anGT Emax, relative maximal effect: maximal % inhibition relative to the control glutamate response

Chain of human mGlu2 receptor (Q14416 19-872): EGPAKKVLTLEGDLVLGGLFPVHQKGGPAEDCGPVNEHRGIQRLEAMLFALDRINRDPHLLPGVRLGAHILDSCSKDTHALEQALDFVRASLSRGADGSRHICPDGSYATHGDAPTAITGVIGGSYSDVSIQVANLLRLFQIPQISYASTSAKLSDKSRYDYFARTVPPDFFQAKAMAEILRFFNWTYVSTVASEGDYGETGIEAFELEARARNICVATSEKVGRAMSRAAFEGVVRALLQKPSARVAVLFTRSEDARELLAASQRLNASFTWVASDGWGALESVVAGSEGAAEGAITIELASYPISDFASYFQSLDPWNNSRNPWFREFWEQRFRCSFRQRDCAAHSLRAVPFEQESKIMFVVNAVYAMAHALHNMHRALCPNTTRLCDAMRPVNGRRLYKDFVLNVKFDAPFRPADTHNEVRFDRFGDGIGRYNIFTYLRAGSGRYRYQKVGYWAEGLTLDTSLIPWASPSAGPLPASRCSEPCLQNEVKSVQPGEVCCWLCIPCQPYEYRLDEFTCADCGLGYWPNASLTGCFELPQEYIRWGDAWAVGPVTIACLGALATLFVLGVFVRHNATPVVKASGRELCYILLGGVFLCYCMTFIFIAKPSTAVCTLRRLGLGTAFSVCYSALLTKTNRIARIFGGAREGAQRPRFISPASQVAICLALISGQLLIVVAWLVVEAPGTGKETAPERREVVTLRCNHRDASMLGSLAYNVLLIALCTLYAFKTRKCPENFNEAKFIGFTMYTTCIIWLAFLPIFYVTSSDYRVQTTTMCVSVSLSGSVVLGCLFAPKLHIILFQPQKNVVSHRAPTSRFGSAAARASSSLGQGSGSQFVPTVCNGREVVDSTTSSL

Row | melting point [°C] | IC50 (human mGlu2 receptor) [M] | Emax (human mGlu2 receptor; [3]) [%] | SMILES | further results
1 | 192.95 | 2.14e-08 | 113 | COc1ccccc1NC(=O)c1cnn2c1C(=O)N(c1ccc(C(F)(F)F)c(OC)n1)C[C@@H]2C [compound 122] | 
2 | 156.83 | 2.34e-09 | 110 | Cc1cc(N2C[C@H](C)n3ncc(C(=O)Nc4cncc(F)c4C)c3C2=O)ccc1C(F)(F)F [compound 125] | 
3 | 213.44 | 2.88e-09 | 106 | Cc1cc(NC(=O)c2cnn3c2C(=O)N(c2ccc(C(F)(F)F)c(Cl)c2)C[C@@H]3C)on1 [compound 128] | 
4 | 189.99 | 6.17e-09 | 110 | Cc1c(F)cncc1NC(=O)c1cnn2c1C(=O)N(c1ccc(Cl)cc1)C[C@@H]2C [compound 129] | 
5 | 211.11 | 8.51e-10 | 110 | Cc1c(F)cncc1NC(=O)c1cnn2c1C(=O)N(c1ccc(Cl)c(Cl)c1)C[C@@H]2C [compound 130] | 
6 | 186.35 | 2.95e-09 | 110 | Cc1c(F)cncc1NC(=O)c1cnn2c1C(=O)N(c1ccc(C(F)(F)F)c(F)c1)C[C@@H]2C [compound 131] | 
7 | 104.2 | 1.55e-06 | 104 | C[C@H]1CN(c2ccc(C(F)(F)F)cc2)C(=O)c2c(C(=O)NCc3ccc(N)nc3)cnn21 [compound 136, (7S)—N-[(6-Amino-3-pyridyl)methyl]-7-methyl-4-oxo-5-[4-(trifluoromethyl)phenyl]-6,7-dihydropyrazolo[1,5-a]pyrazine-3-carboxamide] | 
8 | 237.74 | 4.07e-08 | 107 | C[C@H]1CN(c2ccc(C(F)(F)F)cc2)C(=O)c2c(C(=O)NC(=O)C3CCC3)cnn21 [compound 137, (7S)—N-(cyclobutanecarbonyl)-7-methyl-4-oxo-5-[4-(trifluoromethyl)phenyl]-6,7-dihydropyrazolo[1,5-a]pyrazine-3-carboxamide] | 
9 | 212.65 | 1.66e-07 | 114 | CC(=O)NC(=O)c1cnn2c1C(=O)N(c1ccc(C(F)(F)F)cc1)C[C@@H]2C [compound 138] | 
10 | 204.9 | 2.57e-08 | 109 | C[C@H]1CN(c2ccc(C(F)(F)F)cc2)C(=O)c2c(C(=O)Nc3ncco3)cnn21 [compound 139] | 
11 | 257.9 | 2.14e-07 | 110 | C[C@H]1CN(c2ccc(C(F)(F)F)cc2)C(=O)c2c(C(=O)Nc3ncc[nH]3)cnn21 [compound 142] | 
12 | 201.6 | 8.13e-09 | 116 | COc1cc(N2C[C@H](C)n3ncc(C(=O)Nc4cc(C)nc(C)c4)c3C2=O)ccc1C(F)(F)F [compound 143] | 
13 | 209.5 | 1.23e-09 | 126 | C[C@H]1CN(c2ccc(C(F)(F)F)cc2)C(=O)c2c(C(=O)Nc3cncc(F)n3)cnn21 [compound 145] | 
14 | 172.9 | 9.55e-10 | 128 | C[C@H]1CN(c2ccc(Cl)c(Cl)c2)C(=O)c2c(C(=O)Nc3cncc(F)n3)cnn21 [compound 146] | 
15 | 150.83 | 1.86e-08 | 105 | C[C@H]1CN(c2ccc(C(F)(F)F)cc2)C(=O)c2c(C(=O)Nc3cncc(CO)c3)cnn21 [compound 148, (7S)—N-[5-(hydroxymethyl)pyridin-3-yl]-7-methyl-4-oxo-5-[4-(trifluoromethyl)phenyl]-4,5,6,7-tetrahydropyrazolo[1,5-a]pyrazine-3-carboxamide] | 
16 | 169.28 | 8.13e-09 | 107 | C[C@H]1CN(c2ccc(C(F)(F)F)cc2)C(=O)c2c(C(=O)Nc3ccnc(CO)c3)cnn21 [compound 150] | 
17 | 229.9 | 1.23e-07 | 111 | O=C(Nc1cccnc1)c1cnn2c1C(=O)N(c1ccc(C(F)(F)F)cc1)CC2 [compound 153] | 

The remaining lines, values behind:

Row | SMILES | melting point [°C] | IC50 (human mGlu2 receptor) [M] | Emax (human mGlu2 receptor; [3]) [%] | further results
18 | COCC1CN(c2ccc(C(F)(F)F)cc2)C(=O)c2c(C(=O)Nc3cnccn3)cnn21 (single isomer, unassigned) [compound 154] |  |  |  | ED50 SCOP JNJ-42153605 (Reversal of the effect of JNJ 42153605 on scopolamine-induced hyperlocomotion) (rats; [1]): 0.63 mg/kg; GTPγS - hmGluR2 anGT pIC50 (human mGlu2 receptor): 8.31; GTPγS - hmGluR2 anGT Emax (human mGlu2 receptor): 113%
19 | COCC1CN(c2ccc(C(F)(F)F)c(Cl)c2)C(=O)c2c(C(=O)Nc3cccnc3)cnn21 (single isomer, unassigned) [compound 156] |  |  |  | ED50 SCOP JNJ-42153605 (Reversal of the effect of JNJ 42153605 on scopolamine-induced hyperlocomotion) (rats; [1]): 0.20 mg/kg; GTPγS - hmGluR2 anGT pIC50 (human mGlu2 receptor): 8.77; GTPγS - hmGluR2 anGT Emax (human mGlu2 receptor): 107%
20 | COCC1CN(c2ccc(C(F)(F)F)cc2)C(=O)c2c(C(=O)Nc3cccnc3)cnn21 (single isomer, unassigned) [compound 158] |  |  |  | ED50 SCOP JNJ-42153605 (Reversal of the effect of JNJ 42153605 on scopolamine-induced hyperlocomotion) (rats; [1]): >0.63 mg/kg; GTPγS - hmGluR2 anGT pIC50 (human mGlu2 receptor): 8.48; GTPγS - hmGluR2 anGT Emax (human mGlu2 receptor): 108%
21 | CN1[C@@H]2C[C@@H](OC(=O)[C@H](CO)c3ccccc3)C[C@H]1[C@@H]1O[C@@H]12 [Scopolamine, scopolamine] |  |  |  | Total distance traveled >1500 cm (%) (rats; [2]): 100%; Total distance traveled >4400 cm (%) (rats; [2]): 95.8%; Total distance traveled, Median (cm) (rats; [2]): 7246 cm
22 | Cc1cncc(NC(=O)c2cnn3c2C(=O)N(c2ccc(Cl)c(Cl)c2)C[C@@H]3C)c1 [compound 28] |  |  |  | ED50 SCOP JNJ-42153605 (Reversal of the effect of JNJ 42153605 on scopolamine-induced hyperlocomotion) (rats; [1]): >0.63 mg/kg; GTPγS - hmGluR2 anGT pIC50 (human mGlu2 receptor): 9.06; GTPγS - hmGluR2 anGT Emax (human mGlu2 receptor): 107%
23 | COc1cncc(NC(=O)c2cnn3c2C(=O)N(c2ccc(Cl)c(Cl)c2)C[C@@H]3C)c1 [compound 29] |  |  |  | ED50 SCOP JNJ-42153605 (Reversal of the effect of JNJ 42153605 on scopolamine-induced hyperlocomotion) (rats; [1]): >0.63 mg/kg; GTPγS - hmGluR2 anGT pIC50 (human mGlu2 receptor): 8.75; GTPγS - hmGluR2 anGT Emax (human mGlu2 receptor): 107%
24 | COc1nc(N2C[C@H](C)n3ncc(C(=O)Nc4ccccc4)c3C2=O)ccc1Cl [compound 83, (7S)-5-(5-Chloro-6-methoxy-2-pyridyl)-7-methyl-4-oxo-N-phenyl-6,7-dihydropyrazolo[1,5-a]pyrazine-3-carboxamide] | 203.08 | 1.55e-08 | 111 | 
25 | Cc1cc(NC(=O)c2cnn3c2C(=O)N(c2ccc(C(F)(F)F)c(C#N)c2)C[C@@H]3C)ccn1 [compound 91] | 224.9 | 1.86e-08 | 103 | 
26 | COCc1cc(N2C[C@H](C)n3ncc(C(=O)Nc4ccnc(C)c4)c3C2=O)ccc1C(F)(F)F [compound 95] |  | 5.5e-09 | 112 | ED50 (rats; Rattus norvegicus, rats, route PO, criterion total distance >1500 cm, read-out: ED50 SCOP JNJ-42153605 (Reversal of the effect of JNJ 42153605 on scopolamine-induced hyperlocomotion)): > 2.5 mg/kg
27 | Cc1cc(NC(=O)c2cnn3c2C(=O)N(c2ccccc2)C[C@@H]3C)ccn1 [compound 97] | 94.5 | 1.48e-07 | 114 | 
28 | Cc1ncc(NC(=O)c2cnn3c2C(=O)N(c2ccc(C(F)(F)F)cc2)C[C@@H]3C)cn1 [compound 99] | 223.3 | 4.57e-08 | 100 | 
29 | C[C@H]1CN(c2ccc(C(F)(F)F)cc2)C(=O)c2c(C(=O)Nc3ncccn3)cnn21 [compound 103] | 248.3 | 1.02e-07 | 104 | 
30 | C[C@H]1CN(c2ccc(C(F)(F)F)c(F)c2)C(=O)c2c(C(=O)Nc3cnccn3)cnn21 [compound 113] | 181.5 | 3.16e-09 | 107 | 
31 | COc1cc(N2C[C@H](C)n3ncc(C(=O)Nc4cnccn4)c3C2=O)ccc1C(F)(F)F [compound 115] | 193.3 | 6.92e-09 | 108 | 
32 | COc1cccc(NC(=O)c2cnn3c2C(=O)N(c2ccc(C(F)(F)F)c(OC)n2)C[C@@H]3C)c1 [compound 119, (7S)—N-(3-Methoxyphenyl)-5-[6-methoxy-5-(trifluoromethyl)-2-pyridyl]-7-methyl-4-oxo-6,7-dihydropyrazolo[1,5-a]pyrazine-3-carboxamide] | 194.51 | 7.76e-09 | 111 | 
33 | COc1ccc(NC(=O)c2cnn3c2C(=O)N(c2ccc(C(F)(F)F)c(OC)n2)C[C@@H]3C)cc1 [compound 121] | 212.39 | 9.77e-09 | 109 | 
34 | C[C@H]1CN(c2ccc(C(F)(F)F)cc2)C(=O)c2c(C(=O)Nc3ccc(S(=O)(=O)F)cc3)cnn21 [compound 167] | 205.04 | 4.27e-08 |  | Emax (human mGlu2 receptor; read-out: GTPγS - hmGluR2 anGT Emax): 107%

From patent US20200121677A1, “SUBSTITUTED 6,7-DIHYDROPYRAZOLO[1,5-a]PYRAZINES AS NEGATIVE ALLOSTERIC MODULATORS OF MGLUR2 RECEPTORS” (Janssen Pharmaceutica NV, priority 2014, published 2020)
